Assay results reported in patent US7348330B2, “1-azabicyclo [2,2,2] octan-3-one derivatives” (Aprea AB, priority 2000, dated 2008).

Key:
Saos-2-His-273 cells [1] = experiment: FACS analysis of apoptosis (sub-G1, propidium iodide); format: cell-based, human; settings: for p53 dependence of apoptosis induction: cells grown in presence or absence of doxycyclin; for time after treatment at which apoptosis/cell death is evident: data not shown
Method: (§1) Induction of apoptosis was determined by FACS analysis of ethanol fixed cells stained with propidium iodide (PI) as percentage of a sub-G1 population. […] The percentage of dead cells in non-treated cultures and in controls treated with caspase inhibitors only was subtracted. […] Hoechst staining was used to stain cell nuclei. […] The percentage of apoptotic cells was measured by FACS analysis as it was described in Figure.
(§2) Cells were placed on 12-well plate at a density of 30000/cm^2 and treated with compounds. After 48 h incubation cells were harvested by trypsinization, fixed with 70% ethanol, treated with RNase A (0.25 mg/ml) and stained with propidium iodide (0.02 mg/ml). Samples were analyzed on a Becton Dickinson FACScan. Data were analyzed by the CellQuest software, version 3.2.1.
Induction of cell death was determined by FACS analysis of ethanol-fixed cells stained with propidium iodide (PI) as percentage of sub-G1 population.

p53-null Saos-2 cells = experiment: as above; format: cell-based, human; design: dose or concentration left out as unconfirmed
Method: as §1, §2

SKOV-His-175 cells = experiment: p53-responsive EGFP reporter; format: cell-based, human
Excerpt: FIG. 9B, mutant p53-dependent activation of the wild-type p53-responsive EGFP reporter in PRIMA-1-treated SKOV-His-175 cells. […] FIG. 9C, MIRA-1 induced wild-type p53-responsive EGFP reporter in SKOV-His-175 cells.
The plasmids encoding the GST-human wild type p53 fusion protein and the GST-human mutant p53 proteins His 175 were described earlier (Selivanova et al., 1996). The p53-EGFP plasmid contains 13 synthetic p53 consensus DNA binding sites in front of the EGFP coding sequence. Transient transfections experiments were performed with Lipofectamine 2000 according to the manufacturer's recommendations (Invitrogen™ Life Technologies, Groningen, The Netherlands).
We also transiently transfected SKOV-His-175 cells with a p53-responsive EGFP reporter.

[2] = molecular target: T1, GST-wild type p53 protein (Homo sapiens, UniProt P04637); experiment: Band shift assay, heat-inactivated protein; format: biochemical; settings: protein inactivated at 37° C. for 30 min
T1 construct: made in house
Method: Lane 3, inactivation of DNA binding of wtp53 by heating.
(§3) The GST-p53 proteins were prepared as described (Selivanova et al., 1997). Band shift assays were performed in binding buffer containing 100 mM HEPES pH 7.5, 50 mM KCl , 1 mg/ml BSA, 0.1% Triton X-100, 2 mM MgCl2 and 1 mM DTT essentially as in (Selivanova et al., 1996).
Substitution of arginin at position 175 causes a gross unfolding of the DNA binding core domain of p53. Therefore, the restoration of the DNA binding of this mutant was regarded as an exceptionally difficult task.

[3] = molecular target: T1, GST-wild type p53 protein; experiment: ELISA with conformation-specific antibodies, recombinant protein; format: biochemical
Method: 20 ng of GST-wtp53, GST-mtp53-175 and GST-mtp53-248 were heated at 37° C. for 30 min or kept on ice. The procedure was performed with or without tested compounds. The ELISA analyses were done as described by (Foster et al., 1999). Briefly, after the treatment, samples were diluted with coating buffer (150 mM KCL, 25 mM HEPES) supplemented with 10 mM DTT. The whole mixture was apply to ELISA plates (MaxiSorp, Nunc) and incubated at +4° C. for 35 min. The wells were washed with coating buffer. The wells were blocked by 5% skim milk in PBS by incubating at +4° C. for 1 h. […] Samples were incubated at +4° C. for 30 min. Wells were rinsed twice with PBS. After that, a secondary antibody (anti-mouse, conjugated with horse radish peroxidase) was incubated with samples at +4° C. for 30 min. Then plates were washed 5 times with PBS and a peroxidase substrate was added. An absorbance at λ405 nm was monitored by ELISA reader.

H1299-His-175 cells = experiment: Western blot of p53 target genes p21 and MDM2; format: cell-based, human
14 mutant p53 proteins = experiment: Band shift assays, extracts of tumor cell lines; format: biochemical, human; settings: of 14 mutants tested
Method: as §3
The compound MIRA-1 restored the DNA binding of 3 out of 14 mutant p53 proteins (Table III).

[4] = tested on: p53-responsive PG-luciferase reporter in Saos-2-His-273 cells; experiment: PG-luciferase reporter assay; format: cell-based, human
Method: Transactivation assays using p53-responsive promoter constructs linked to the luciferase reporter gene (PG-luc) were performed by the Dual Luciferase Reporter Assay System (Promega) according to the manufacturer. […] A luciferase activity was assayed 1; 3.5 and 15 hours post-treatment.

Saos-2-His-273 cells [5] = experiment: Colony formation assay; format: cell-based, human
Excerpt: Colonies were stained with Giemsa and counted 14 days after seeding.
The cells were Giemsa stained and scored for the appearance of colonies after 14 days.

[6] = tested on: KRC/Y renal carcinoma cells (Phe-176 mutant p53); experiment: FACS analysis of apoptosis; format: cell-based, human
Method: The percentage of apoptotic cells was detected by FACS analysis as it was described in FIG. 3A.
as §2
Thus, it appears that the defect caused by substitution of the Cys residue at position 176 is irreversible. The substitution of this Cys residue abolishes the binding of a Zn atom which holds together the DNA-binding loops of the p53 core domain. Therefore, the unfolding of this mutant p53 protein is probably too extensive to be restored.

[7] = absence of mutant p53 expression
[8] = cells expressing mutant p53, PRIMA-1 25 μM, MIRA-1 10 μM

T1 sequence (P04637 whole entry): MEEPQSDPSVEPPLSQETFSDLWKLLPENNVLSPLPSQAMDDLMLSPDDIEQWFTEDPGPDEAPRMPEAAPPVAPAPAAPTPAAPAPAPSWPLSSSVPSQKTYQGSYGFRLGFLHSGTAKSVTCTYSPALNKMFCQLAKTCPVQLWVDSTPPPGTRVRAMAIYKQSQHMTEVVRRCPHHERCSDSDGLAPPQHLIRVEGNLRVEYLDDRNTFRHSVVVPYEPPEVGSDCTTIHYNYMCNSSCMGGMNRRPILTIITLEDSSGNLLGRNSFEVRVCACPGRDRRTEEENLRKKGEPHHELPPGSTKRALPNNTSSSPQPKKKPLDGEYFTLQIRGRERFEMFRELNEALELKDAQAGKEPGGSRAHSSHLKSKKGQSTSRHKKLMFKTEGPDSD

Row | SMILES | p53 dependence of apoptosis induction (Saos-2-His-273 cells [1]) | time after treatment at which apoptosis/cell death is evident (Saos-2-His-273 cells [1]) [h] | restoration of specific DNA binding [2] | increase in the PAb1620+ fraction [3] | reduction in PAb240+ fraction [3] | induction of MDM2 and p21 (H1299-His-175 cells; [7]) | induction of MDM2 and p21 (H1299-His-175 cells; [8]) | mutant p53 proteins whose specific DNA binding was restored (14 mutant p53 proteins) | other results
1 | CCC(=O)OCN1C(=O)C=CC1=O [MIRA-1] | occurred only in the presence of p53 expression | 6 to 12 | able to restore | About 40% | ~20% | did not cause any induction | solid induction of both MDM2 and p21 | 3 out of 14 | induction of apoptosis (Saos-2-His-273 cells [1]; 48 hours, no doxycycline): apoptosis was induced; induction of apoptosis (p53-null Saos-2 cells; 48 hours): not in p53-null Saos-2 cells; EGFP reporter expression (SKOV-His-175 cells; 5μM for 24 hours): induction of EGFP was also observed; stimulation of luciferase expression ([4]; after 3.5 hours, 10 μM): 2 fold; number of colonies, % of untreated control (Saos-2-His-273 cells [5]; 5 µM of compound, colonies after 14 days): 15%; induction of apoptosis compared to Saos-2-His-273 cells ([6]; 50 μM): much less prominent
2 | O=C1C2CCN(CC2)C1(CO)CO [PRIMA-1, 2,2-bis(hydroxymethyl)-1-azabicyclo[2,2,2]octan-3-one] | occurred only in the presence of p53 expression | 48 | able to restore | 40% | corresponding decrease | did not cause any induction | solid induction of both MDM2 and p21 | 13 out of 14 | induction of apoptosis (Saos-2-His-273 cells [1]; 50, 75 and 125 µM, mutant p53 expressed): apoptosis was induced; induction of apoptosis (p53-null Saos-2 cells; 50, 75 and […], no p53 expression): much less efficient; EGFP reporter expression (SKOV-His-175 cells; cells expressing mutant p53, 24 hours): strong induction of EGFP expression; EGFP reporter expression (SKOV-His-175 cells; doxycycline (p53 off), 24 hours): did not express detectable levels of EGFP; DO-1+ fraction [3]: remained unchanged; induction of luciferase expression ([4]; after 15 hours, 50 μM): 2 fold; doses inhibitory to colony formation in a mutant p53-dependent manner (Saos-2-His-273 cells [5]; Saos-2-His-273 vs Saos-2): 50 to 100 µM; induction of apoptosis compared to Saos-2-His-273 cells ([6]; 75 μM): much less prominent
